The text below walks through data of PMC3314654, “Characterization of Rhodamine-123 as a Tracer Dye for Use In In vitro Drug Transport Assays” (PLoS ONE, 2012).

One series concerns the target ABCB1 (MDR1) (Homo sapiens, UniProt P08183). As to the kind of experiment: R123 efflux from MDCKII-ABCB1 versus naive MDCKII cells (Km). The format is cell-based. To be noted: mdck.
In a further series the target is T1, OATP1A2 (Homo sapiens, UniProt P46721).
T1 construct: gene SLCO1A2
T1 sequence (P46721 1-670): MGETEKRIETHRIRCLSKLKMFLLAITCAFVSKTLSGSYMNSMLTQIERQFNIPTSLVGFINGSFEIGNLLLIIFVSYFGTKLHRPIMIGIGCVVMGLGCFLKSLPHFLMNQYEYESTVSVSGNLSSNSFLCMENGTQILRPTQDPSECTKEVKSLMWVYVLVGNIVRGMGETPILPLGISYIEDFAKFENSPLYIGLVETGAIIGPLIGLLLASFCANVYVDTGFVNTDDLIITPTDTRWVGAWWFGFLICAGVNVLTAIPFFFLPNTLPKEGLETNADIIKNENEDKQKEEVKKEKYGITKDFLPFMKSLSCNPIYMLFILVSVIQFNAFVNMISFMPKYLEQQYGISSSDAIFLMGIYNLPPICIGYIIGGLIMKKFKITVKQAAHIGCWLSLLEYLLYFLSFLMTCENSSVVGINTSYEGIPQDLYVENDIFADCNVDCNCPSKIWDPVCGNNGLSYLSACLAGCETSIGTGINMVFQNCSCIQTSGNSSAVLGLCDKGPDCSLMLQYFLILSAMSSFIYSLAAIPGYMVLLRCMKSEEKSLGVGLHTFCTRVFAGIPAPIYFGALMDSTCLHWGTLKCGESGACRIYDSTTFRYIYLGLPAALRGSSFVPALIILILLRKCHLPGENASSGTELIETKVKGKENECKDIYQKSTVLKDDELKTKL
As to the kind of experiment: R123 uptake in BacMam-transduced HEK293-MSRII cells (Km). The format is cell-based.

ABCB1 (MDR1), sequence (P08183 whole entry): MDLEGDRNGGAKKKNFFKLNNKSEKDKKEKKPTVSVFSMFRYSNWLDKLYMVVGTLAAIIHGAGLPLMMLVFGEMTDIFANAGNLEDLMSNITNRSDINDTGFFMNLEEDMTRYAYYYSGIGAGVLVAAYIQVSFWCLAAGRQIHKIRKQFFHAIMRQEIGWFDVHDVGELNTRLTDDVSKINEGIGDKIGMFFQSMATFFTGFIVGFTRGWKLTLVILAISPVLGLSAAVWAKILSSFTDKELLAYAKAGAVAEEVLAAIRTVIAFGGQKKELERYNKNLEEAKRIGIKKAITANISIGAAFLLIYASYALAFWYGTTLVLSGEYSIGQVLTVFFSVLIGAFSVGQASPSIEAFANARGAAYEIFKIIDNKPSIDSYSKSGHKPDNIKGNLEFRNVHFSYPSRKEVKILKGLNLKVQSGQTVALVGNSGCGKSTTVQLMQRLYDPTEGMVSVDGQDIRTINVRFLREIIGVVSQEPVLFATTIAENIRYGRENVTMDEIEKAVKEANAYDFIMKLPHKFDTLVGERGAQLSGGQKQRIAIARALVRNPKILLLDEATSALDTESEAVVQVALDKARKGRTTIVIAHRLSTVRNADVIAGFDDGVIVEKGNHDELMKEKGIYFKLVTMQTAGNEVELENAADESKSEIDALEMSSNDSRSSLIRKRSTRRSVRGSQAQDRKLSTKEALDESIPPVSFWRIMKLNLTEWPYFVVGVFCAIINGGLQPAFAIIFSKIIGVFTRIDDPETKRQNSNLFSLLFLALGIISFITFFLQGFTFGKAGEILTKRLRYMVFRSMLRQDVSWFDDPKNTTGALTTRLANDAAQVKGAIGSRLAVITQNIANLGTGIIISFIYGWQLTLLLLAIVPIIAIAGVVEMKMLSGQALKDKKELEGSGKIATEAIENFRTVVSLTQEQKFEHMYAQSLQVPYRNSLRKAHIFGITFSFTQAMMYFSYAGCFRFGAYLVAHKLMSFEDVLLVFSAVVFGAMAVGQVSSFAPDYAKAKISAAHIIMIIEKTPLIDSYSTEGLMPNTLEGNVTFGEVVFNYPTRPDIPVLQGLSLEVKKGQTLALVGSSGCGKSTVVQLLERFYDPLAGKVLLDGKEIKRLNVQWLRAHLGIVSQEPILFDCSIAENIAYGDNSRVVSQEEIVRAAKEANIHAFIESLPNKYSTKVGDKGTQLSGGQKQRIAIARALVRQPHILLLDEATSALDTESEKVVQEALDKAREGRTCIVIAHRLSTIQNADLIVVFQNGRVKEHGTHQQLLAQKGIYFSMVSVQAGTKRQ

As a reminder, the Km is the concentration of substrate that gives half-maximal velocity. With `COC(=O)c1ccccc1-c1c2ccc(=N)cc-2oc2cc(N)ccc12` [R123, Rhodamine 123], the results for the Michaelis constant (Km) at ABCB1 (MDR1) and on OATP1A2 were 17.5 ± 2.8 µM and 0.3 ± 0.1 µM, respectively.
